Paper PMC11079024, “Identification of a family of species-selective complex I inhibitors as potential anthelmintics” (Nature Communications, 2024)
Read-outs that look alike come from different tables or passages of the source.

Experiments:
[1] = biological target: C. elegans (N2) complex I (NADH:ubiquinone oxidoreductase) (Caenorhabditis elegans, UniProt P24887+Q93873+Q94360); test: biochemical; type: biochemical
Method in brief: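 Compounds were tested against freeze-thawed isolated mitochondria (0.2 mg/mL protein). NADH:decylubiquinone activity was monitored via DCIP absorbance at 600 nm, and the initial linear slope was normalised to solvent controls.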

L1 wild-type C. elegans [2] = test: microbe, parasite or virus in culture; settings: Caenorhabditis elegans, read-out: C. elegans KCN Survival Assay LC50, estimated from fitted dose-response curves; mean of at least two biological replicates
L1 wild-type C. elegans [3] = test system: L1 wild-type C. elegans

Chain of C. elegans (N2) complex I (NADH:ubiquinone oxidoreductase) (Q94360 17-199): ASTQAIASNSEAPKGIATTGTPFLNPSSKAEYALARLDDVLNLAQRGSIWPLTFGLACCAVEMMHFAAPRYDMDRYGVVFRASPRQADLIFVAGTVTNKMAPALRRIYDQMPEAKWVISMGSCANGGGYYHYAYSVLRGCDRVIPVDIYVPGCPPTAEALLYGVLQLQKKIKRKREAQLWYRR
Chain of C. elegans (N2) complex I (NADH:ubiquinone oxidoreductase) (P24887 whole entry): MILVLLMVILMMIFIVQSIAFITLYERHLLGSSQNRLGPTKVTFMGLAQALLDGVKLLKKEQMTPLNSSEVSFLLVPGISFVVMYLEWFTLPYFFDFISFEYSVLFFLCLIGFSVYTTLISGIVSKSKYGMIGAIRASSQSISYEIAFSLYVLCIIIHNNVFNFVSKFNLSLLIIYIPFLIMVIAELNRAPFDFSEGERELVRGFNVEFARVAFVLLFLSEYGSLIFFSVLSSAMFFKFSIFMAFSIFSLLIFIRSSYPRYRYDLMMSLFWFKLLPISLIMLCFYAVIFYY
Chain of C. elegans (N2) complex I (NADH:ubiquinone oxidoreductase) (Q93873 31-482): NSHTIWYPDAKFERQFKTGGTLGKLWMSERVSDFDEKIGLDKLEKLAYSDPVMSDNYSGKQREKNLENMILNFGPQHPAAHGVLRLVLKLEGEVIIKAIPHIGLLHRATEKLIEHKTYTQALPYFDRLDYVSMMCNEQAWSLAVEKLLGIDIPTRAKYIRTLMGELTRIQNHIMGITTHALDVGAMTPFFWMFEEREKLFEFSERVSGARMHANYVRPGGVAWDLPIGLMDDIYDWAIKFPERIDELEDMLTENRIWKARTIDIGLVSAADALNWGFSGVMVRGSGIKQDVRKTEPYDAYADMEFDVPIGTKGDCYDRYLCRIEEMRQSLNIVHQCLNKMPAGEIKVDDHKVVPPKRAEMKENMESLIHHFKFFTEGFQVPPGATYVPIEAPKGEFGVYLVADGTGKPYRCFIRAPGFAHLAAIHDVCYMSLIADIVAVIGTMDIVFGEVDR

Question: How did the activity at 0.0001 µM ([1]; Dose 0.0001 µM, read-out: C. elegans mitochondrial complex I activity) turn out when `Cc1nc2ccccc2n1Cc1ccc(Cl)c(Cl)c1` [Compound 5655567] was run?
Answer: 86.1%

Question: What about the activity at 0.0005 µM ([1]; Dose 0.0005 µM, read-out: C. elegans mitochondrial complex I activity) of the same compound?
Answer: 92.1%

Question: And the activity at 0.001 µM ([1]; Dose 0.001 µM, read-out: C. elegans mitochondrial complex I activity)?
Answer: 93.5%

Question: And the activity at 0.0025 µM ([1]; Dose 0.0025 µM, read-out: C. elegans mitochondrial complex I activity)?
Answer: 93.8%

Question: And the activity at 0.005 µM ([1]; Dose 0.005 µM, read-out: C. elegans mitochondrial complex I activity)?
Answer: 90.5%

Question: And the activity at 0.013 µM ([1]; Dose 0.013 µM, read-out: C. elegans mitochondrial complex I activity)?
Answer: 90.4%

Question: What about the activity at 0.025 µM ([1]; Dose 0.025 µM, read-out: C. elegans mitochondrial complex I activity) of the same compound?
Answer: 78.8%

Question: What about the activity at 0.063 µM ([1]; Dose 0.063 µM, read-out: C. elegans mitochondrial complex I activity) of the same compound?
Answer: 76.6%

Question: And the activity at 0.125 µM ([1]; Dose 0.125 µM, read-out: C. elegans mitochondrial complex I activity)?
Answer: 72.5%

Question: And the activity at 0.313 µM ([1]; Dose 0.313 µM, read-out: C. elegans mitochondrial complex I activity)?
Answer: 39.7%

Question: And the activity at 0.625 µM ([1]; Dose 0.625 µM, read-out: C. elegans mitochondrial complex I activity)?
Answer: 49.3%

Question: What about the activity at 1.5 µM ([1]; Dose 1.5 µM, read-out: C. elegans mitochondrial complex I activity) of the same compound?
Answer: 25.2%

Question: What about the activity at 3 µM ([1]; Dose 3 µM, read-out: C. elegans mitochondrial complex I activity) of the same compound?
Answer: 11.5%

Question: And the activity at 15 µM ([1]; Dose 15 µM, read-out: C. elegans mitochondrial complex I activity)?
Answer: 0.44%

Question: What about the activity at 37.5 µM ([1]; Dose 37.5 µM, read-out: C. elegans mitochondrial complex I activity) of the same compound?
Answer: 0.7%

Question: And the activity at 75 µM ([1]; Dose 75 µM, read-out: C. elegans mitochondrial complex I activity)?
Answer: 0.75%

Question: What about the IC50 ([1]; in vitro complex I dose response on C. elegans mitochondria, average of at least two biological replicates, fit in R (DRC), read-out: IC50 C. elegans complex I) of the same compound?
Answer: 470 nM

Question: What about the “Log IC50 C. elegans complex I” value ([1]; log10 of IC50 in µM, C. elegans mitochondria) of the same compound?
Answer: -0.33 µM

Question: What about the IC50 ([1]; wild-type (N2) mitochondria, read-out: C. elegans Complex I IC50) of the same compound?
Answer: 470 nM

Question: What about the IC50 ([1]; wild-type C. elegans mitochondria, estimated from fitted dose-response curves, read-out: C. elegans Complex I IC50) of the same compound?
Answer: 470 nM

Question: What about the LC50 (L1 wild-type C. elegans [2]) of the same compound?
Answer: 8260 nM

Question: And the “Screen "Hit"” value (L1 wild-type C. elegans [3]; 50 μM, […], KCN survival assay, hit = relative motility below 0.25)?
Answer: Y (hits were identified as compounds that reduced relative motility below 0.25 (75% reduction))

Question: And the “C. elegans KCN Survival” value (L1 wild-type C. elegans [3]; Dose 0.2 µM, mean of at least three biological replicates)?
Answer: 0.934

Question: What about the “C. elegans KCN Survival” value (L1 wild-type C. elegans [3]; Dose 0.39 µM) of the same compound?
Answer: 0.972

Question: And the “C. elegans KCN Survival” value (L1 wild-type C. elegans [3]; Dose 1.56 µM)?
Answer: 0.973

Question: And the “C. elegans KCN Survival” value (L1 wild-type C. elegans [3]; Dose 3.13 µM)?
Answer: 0.953

Question: And the “C. elegans KCN Survival” value (L1 wild-type C. elegans [3]; Dose 6.25 µM)?
Answer: 0.756

Question: And the “C. elegans KCN Survival” value (L1 wild-type C. elegans [3]; Dose 12.5 µM)?
Answer: 0.219

Question: And the “C. elegans KCN Survival” value (L1 wild-type C. elegans [3]; Dose 25 µM)?
Answer: 0.111

Question: And the “C. elegans KCN Survival” value (L1 wild-type C. elegans [3]; Dose 50 µM)?
Answer: 0.120

Question: And the “C. elegans KCN Survival” value (L1 wild-type C. elegans [3]; Dose 100 µM)?
Answer: 0.176
